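Where inhibition never reached the appropriate level, the endpoint shown equals the highest concentration tested. Otherwise, values were interpolated linearly from a five-concentration, 48-hour dose response in 96-well plates. Here, GI50 denotes the concentration required for 50% inhibition of growth. TGI is the concentration that stops growth completely.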
Legend:
Experiment in all cases: inhibition of tumour cell growth, NCI panel, 48 h
BT-549 breast = system: BT-549 breast
MCF7 breast = system: MCF7 breast
NCI-H23 lung = system: NCI-H23 lung
SF-268 CNS = system: SF-268 CNS
HOP-62 NSCLC = system: HOP-62 NSCLC
NCI/ADR-RES ovarian = system: NCI/ADR-RES ovarian
OVCAR-3 ovarian = system: OVCAR-3 ovarian
NCI-H460 lung = system: NCI-H460 lung
786-0 renal = system: 786-0 renal
PC-3 prostate = system: PC-3 prostate
EKVX NSCLC = system: EKVX NSCLC
SF-295 CNS = system: SF-295 CNS
TK-10 renal = system: TK-10 renal
SR leukemia = system: SR leukemia
HCT-15 colon = system: HCT-15 colon
UACC-62 melanoma = system: UACC-62 melanoma
SK-MEL-28 melanoma = system: SK-MEL-28 melanoma
MALME-3M melanoma = system: MALME-3M melanoma
SNB-19 CNS = system: SNB-19 CNS
K-562 leukemia = system: K-562 leukemia
CAKI-1 renal = system: CAKI-1 renal
DU-145 prostate = system: DU-145 prostate
MDA-MB-435 = system: MDA-MB-435
A498 renal = system: A498 renal
HCC-2998 colon = system: HCC-2998 colon
HCT-116 colon = system: HCT-116 colon
SK-MEL-2 melanoma = system: SK-MEL-2 melanoma
M14 melanoma = system: M14 melanoma
T-47D breast = system: T-47D breast
U251 CNS = system: U251 CNS
HOP-92 NSCLC = system: HOP-92 NSCLC
HS 578T breast = system: HS 578T breast
HT29 colon = system: HT29 colon
SK-MEL-5 melanoma = system: SK-MEL-5 melanoma
SNB-75 CNS = system: SNB-75 CNS
OVCAR-8 ovarian = system: OVCAR-8 ovarian
SF-539 CNS = system: SF-539 CNS
OVCAR-5 ovarian = system: OVCAR-5 ovarian
RXF 393 renal = system: RXF 393 renal
A549 NSCLC = system: A549 NSCLC
CCRF-CEM leukemia = system: CCRF-CEM leukemia
MOLT-4 leukemia = system: MOLT-4 leukemia
RPMI-8226 leukemia = system: RPMI-8226 leukemia
SW-620 colon = system: SW-620 colon
OVCAR-4 ovarian = system: OVCAR-4 ovarian
ACHN renal = system: ACHN renal
UACC-257 melanoma = system: UACC-257 melanoma
LOX IMVI melanoma = system: LOX IMVI melanoma
NCI-H522 lung = system: NCI-H522 lung
NCI-H226 lung = system: NCI-H226 lung
UO-31 renal = system: UO-31 renal
COLO 205 colon = system: COLO 205 colon
MDA-MB-231 breast = system: MDA-MB-231 breast
KM12 colon = system: KM12 colon
HL-60(TB) leukemia = system: HL-60(TB) leukemia
IGROV1 ovarian = system: IGROV1 ovarian
SN12C renal = system: SN12C renal
SK-OV-3 ovarian = system: SK-OV-3 ovarian

Structure (SMILES): CC(C)(C)OC(=O)n1c(-c2ccccc2F)cc(=O)c2cc3c(cc21)OCO3
- TGI (BT-549 breast): > 100 µM
- TGI (MCF7 breast): > 100 µM
- TGI (NCI-H23 lung): > 100 µM
- TGI (SF-268 CNS): > 100 µM
- TGI (HOP-62 NSCLC): > 100 µM
- TGI (NCI/ADR-RES ovarian): 0.0555 µM
- TGI (OVCAR-3 ovarian): > 100 µM
- TGI (NCI-H460 lung): > 70.8 µM
- TGI (786-0 renal): > 44.3 µM
- TGI (PC-3 prostate): > 100 µM
- TGI (EKVX NSCLC): > 100 µM
- TGI (SF-295 CNS): > 100 µM
- TGI (TK-10 renal): > 100 µM
- TGI (SR leukemia): > 34.6 µM
- TGI (HCT-15 colon): > 31.9 µM
- TGI (UACC-62 melanoma): > 100 µM
- TGI (SK-MEL-28 melanoma): > 100 µM
- TGI (MALME-3M melanoma): > 100 µM
- TGI (SNB-19 CNS): > 100 µM
- TGI (K-562 leukemia): > 100 µM
- TGI (CAKI-1 renal): > 37.3 µM
- TGI (DU-145 prostate): > 100 µM
- TGI (MDA-MB-435): > 100 µM
- TGI (A498 renal): > 94.7 µM
- TGI (HCC-2998 colon): > 32.3 µM
- TGI (HCT-116 colon): > 31.8 µM
- TGI (SK-MEL-2 melanoma): > 100 µM
- TGI (M14 melanoma): > 100 µM
- TGI (T-47D breast): > 100 µM
- TGI (U251 CNS): > 32.9 µM
- TGI (HOP-92 NSCLC): > 100 µM
- TGI (HS 578T breast): 1.41 µM
- TGI (HT29 colon): 0.368 µM
- TGI (SK-MEL-5 melanoma): 1.2 µM
- TGI (SNB-75 CNS): > 100 µM
- TGI (OVCAR-8 ovarian): 20.4 µM
- TGI (SF-539 CNS): > 72.9 µM
- TGI (OVCAR-5 ovarian): > 100 µM
- TGI (RXF 393 renal): > 40.3 µM
- TGI (A549 NSCLC): > 39.7 µM
- TGI (CCRF-CEM leukemia): 11.1 µM
- TGI (MOLT-4 leukemia): 10 µM
- TGI (RPMI-8226 leukemia): 20.7 µM
- TGI (SW-620 colon): > 100 µM
- TGI (OVCAR-4 ovarian): > 100 µM
- TGI (ACHN renal): > 58.7 µM

Structure (SMILES): COc1ccc2c(c1)C(C)Cc1c(ncnc1-n1cnc3cc(C)ccc31)N2C (configuration not stated)
- GI50 (BT-549 breast): 0.184 µM
- TGI (BT-549 breast): 7.12 µM
- GI50 (MCF7 breast): 0.0379 µM
- TGI (MCF7 breast): 12.7 µM
- GI50 (NCI-H23 lung): 0.4 µM
- TGI (NCI-H23 lung): 23.4 µM
- GI50 (UACC-257 melanoma): 0.158 µM
- TGI (UACC-257 melanoma): 20.8 µM
- GI50 (SF-268 CNS): 0.222 µM
- TGI (SF-268 CNS): 15 µM
- GI50 (HOP-62 NSCLC): 0.0707 µM
- TGI (HOP-62 NSCLC): 18.2 µM
- GI50 (LOX IMVI melanoma): 0.0642 µM
- TGI (LOX IMVI melanoma): 14.5 µM
- GI50 (NCI/ADR-RES ovarian): 0.0575 µM
- TGI (NCI/ADR-RES ovarian): 59.5 µM
- GI50 (OVCAR-3 ovarian): 0.151 µM
- TGI (OVCAR-3 ovarian): 14.1 µM
- GI50 (NCI-H460 lung): 0.128 µM
- TGI (NCI-H460 lung): 10.3 µM
- GI50 (786-0 renal): 0.0649 µM
- TGI (786-0 renal): 15 µM
- GI50 (NCI-H522 lung): 0.0544 µM
- TGI (NCI-H522 lung): 0.325 µM
- GI50 (PC-3 prostate): 0.0407 µM
- TGI (PC-3 prostate): 21 µM
- GI50 (EKVX NSCLC): 0.25 µM
- TGI (EKVX NSCLC): 23.2 µM
- GI50 (NCI-H226 lung): 0.157 µM
- TGI (NCI-H226 lung): 16.3 µM
- GI50 (SF-295 CNS): 0.0317 µM
- TGI (SF-295 CNS): 11 µM
- GI50 (UO-31 renal): 0.106 µM
- TGI (UO-31 renal): 13.1 µM
- GI50 (COLO 205 colon): 0.176 µM
- TGI (COLO 205 colon): 0.388 µM
- GI50 (SR leukemia): 0.0443 µM
- TGI (SR leukemia): 11.1 µM
- GI50 (MDA-MB-231 breast): 0.229 µM
- TGI (MDA-MB-231 breast): 18.6 µM
- GI50 (HCT-15 colon): 0.207 µM
- TGI (HCT-15 colon): 12.9 µM
- GI50 (UACC-62 melanoma): 0.0436 µM
- TGI (UACC-62 melanoma): 18 µM
- GI50 (SK-MEL-28 melanoma): 0.575 µM
- TGI (SK-MEL-28 melanoma): 19.8 µM
- GI50 (SNB-19 CNS): 0.216 µM
- TGI (SNB-19 CNS): 20.4 µM
- GI50 (K-562 leukemia): 0.0386 µM
- TGI (K-562 leukemia): 15.2 µM
- GI50 (CAKI-1 renal): 0.0604 µM
- TGI (CAKI-1 renal): 12.6 µM
- GI50 (DU-145 prostate): 0.325 µM
- TGI (DU-145 prostate): 12.1 µM
- GI50 (A498 renal): 0.0255 µM
- TGI (A498 renal): 0.0889 µM
- GI50 (HCC-2998 colon): 0.329 µM
- TGI (HCC-2998 colon): 13.3 µM
- GI50 (HCT-116 colon): 0.0736 µM
- TGI (HCT-116 colon): 14.9 µM
- GI50 (KM12 colon): 0.132 µM
- TGI (KM12 colon): 11.7 µM
- GI50 (SK-MEL-2 melanoma): 0.187 µM
- TGI (SK-MEL-2 melanoma): 13.4 µM
- GI50 (M14 melanoma): 0.067 µM
- TGI (M14 melanoma): 13.6 µM
- GI50 (U251 CNS): 0.148 µM
- TGI (U251 CNS): 11.6 µM
- GI50 (HOP-92 NSCLC): 0.329 µM
- TGI (HOP-92 NSCLC): 15.9 µM
- GI50 (HS 578T breast): 0.0686 µM
- TGI (HS 578T breast): 31.7 µM
- GI50 (HT29 colon): 0.174 µM
- TGI (HT29 colon): 0.611 µM
- GI50 (SK-MEL-5 melanoma): 0.0753 µM
- TGI (SK-MEL-5 melanoma): 0.589 µM
- GI50 (SNB-75 CNS): 0.0529 µM
- TGI (SNB-75 CNS): 19.9 µM
- GI50 (OVCAR-8 ovarian): 0.244 µM
- TGI (OVCAR-8 ovarian): 0.938 µM
- GI50 (HL-60(TB) leukemia): 0.0956 µM
- TGI (HL-60(TB) leukemia): 0.433 µM
- GI50 (OVCAR-5 ovarian): 0.294 µM
- TGI (OVCAR-5 ovarian): 26.8 µM
- GI50 (IGROV1 ovarian): 0.254 µM
- TGI (IGROV1 ovarian): 14.5 µM
- GI50 (RXF 393 renal): 0.0305 µM
- TGI (RXF 393 renal): 25.3 µM
- GI50 (A549 NSCLC): 0.254 µM
- TGI (A549 NSCLC): 12.6 µM
- GI50 (SN12C renal): 0.38 µM
- TGI (SN12C renal): 20.5 µM
- GI50 (CCRF-CEM leukemia): 0.0324 µM
- TGI (CCRF-CEM leukemia): 14.5 µM
- GI50 (MOLT-4 leukemia): 0.247 µM
- TGI (MOLT-4 leukemia): 12.9 µM
- GI50 (SK-OV-3 ovarian): 0.0591 µM
- TGI (SK-OV-3 ovarian): 11.7 µM
- GI50 (RPMI-8226 leukemia): 0.0407 µM
- TGI (RPMI-8226 leukemia): 3.88 µM
- GI50 (SW-620 colon): 0.087 µM
- TGI (SW-620 colon): 16.1 µM
- GI50 (OVCAR-4 ovarian): 0.347 µM
- TGI (OVCAR-4 ovarian): 33.7 µM
- GI50 (ACHN renal): 0.0688 µM
- TGI (ACHN renal): 15.3 µM
